Laboratory results reported in article PMC10143423, “Endoplasmic Reticulum-Targeting Two-Photon Fluorescent Probe for CYP1A Activity and Its Imaging Application in Endoplasmic Reticulum Stress” (Molecules, 2023).
Blank lines part the entries; values can stand above or below the molecule they belong to.

Assays:
[1] = tested on: CYP1A; assay: Inhibition of ERNM O-demethylation in human liver microsomes by selective CYP inhibitors; format: biochemical; details: inhibitor 2.5 μM, ERNM 10 μM, HLM, fluorescence 558 nm
Method: The incubation mixture is 200 μL. […] Inhibition by TEPA for CYP2B6 were examined by adding ERNM after pre-incubation with NADPH-generating system at 37 °C for 30 min. […] In addition, the residual activity of samples was calculated by the percentage of fluorescence signal for the chemical inhibition group to the control group, with the absence of specific inhibitors. Data were analyzed using GraphPad Prism 8.0 (GraphPad Software, Inc., San Diego, CA, USA).

[2] = tested on: A549 cells; assay: CYP1A activity imaged by ERNM in DTT-induced ER stress cell model; format: cell-based; details: DTT 2.5 mM for 0, 1, 2, 4 h, imaged with ERNM 25 μM
Method: (§1) A549 cells were grown in RPMI-1640 culture medium (containing 10% FBS). A549 cells were seeded and incubated at 37 °C overnight. Then, A549 cells divided into different experimental groups were treated with DTT (dithiothreitol, the in-system concentration of DTT in the incubation system is 2.5 mM) for 0, 1, 2, and 4 h. The adherent cells were washed, and ERNM was added into the cell culture media (the in-system concentration of ERNM in the incubation system is 25 μM) and incubated for 60 min. Then, the cells were rinsed with PBS for at least 3 times to remove the extracellular probe. The cell images were obtained using confocal microscope (Olympus, FV1000), and the excitation wavelength was set at 800 nm and fluorescent emission windows of 520–560 nm.

[3] = biological target: T1, CYP1A1 (Homo sapiens, UniProt P04798); assay: ERNM O-demethylation enzyme kinetics in recombinant CYP1A1; format: biochemical
T1 construct: purchased BD Biosciences (Woburn, MA, USA)
T1 sequence (P04798 1-512): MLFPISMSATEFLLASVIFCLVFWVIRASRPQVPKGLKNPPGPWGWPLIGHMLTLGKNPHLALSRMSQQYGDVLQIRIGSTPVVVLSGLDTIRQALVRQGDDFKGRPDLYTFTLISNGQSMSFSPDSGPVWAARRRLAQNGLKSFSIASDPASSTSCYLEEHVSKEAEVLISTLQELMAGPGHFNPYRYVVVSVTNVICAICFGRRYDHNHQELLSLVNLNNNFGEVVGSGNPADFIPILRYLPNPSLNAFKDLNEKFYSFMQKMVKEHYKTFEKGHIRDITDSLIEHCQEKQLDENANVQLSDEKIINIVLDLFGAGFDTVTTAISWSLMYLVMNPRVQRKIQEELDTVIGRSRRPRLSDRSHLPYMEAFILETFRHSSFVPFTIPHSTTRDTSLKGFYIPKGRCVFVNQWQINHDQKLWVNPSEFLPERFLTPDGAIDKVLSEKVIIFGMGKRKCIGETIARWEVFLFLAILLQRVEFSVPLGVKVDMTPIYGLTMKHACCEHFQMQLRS
Method: (§2) The incubation sample consisted of NADPH-generating system (including NADP^+, magnesium chloride, glucose-6-phosphate, and glucose-6-phosphate dehydrogenase), and human liver microsomes or recombinant human CYP enzyme in potassium phosphate buffer (100 mM, pH 7.4). The total volume of the incubation mixture is 200 μL. Fluorescent substrate was dissolved in DMSO, and was pre-diluted to the working concentrations. If necessary, blank samples without NADPH or without enzymes will be set up as negative controls. The incubation reaction was initiated by adding NADP^+ after pre-incubation at 37 °C for 3 min. In addition, ice acetonitrile (100 µL) was added into the incubation samples for terminating the reaction progress. Briefly, CYP1A1 (5 nM) or CYP1A2 (5 nM) were incubated with ERNM (1, 5, 10, 15, 50, 100, 200 μM) in 200 μL of the incubation mixture in the presence of NADPH-generating systems. After incubation for 30 min, the dealkylated metabolite was measured by quantifying the intensity of fluorescence signal at 558 nm that was excited at 450 nm. Data were analyzed using GraphPad Prism 8.0 (GraphPad Software, Inc., San Diego, CA, USA).

[4] = biological target: T2, CYP1A2 (Homo sapiens, UniProt P05177); assay: ERNM O-demethylation enzyme kinetics in recombinant CYP1A2; format: biochemical
T2 construct: purchased BD Biosciences (Woburn, MA, USA)
T2 sequence (P05177 1-516): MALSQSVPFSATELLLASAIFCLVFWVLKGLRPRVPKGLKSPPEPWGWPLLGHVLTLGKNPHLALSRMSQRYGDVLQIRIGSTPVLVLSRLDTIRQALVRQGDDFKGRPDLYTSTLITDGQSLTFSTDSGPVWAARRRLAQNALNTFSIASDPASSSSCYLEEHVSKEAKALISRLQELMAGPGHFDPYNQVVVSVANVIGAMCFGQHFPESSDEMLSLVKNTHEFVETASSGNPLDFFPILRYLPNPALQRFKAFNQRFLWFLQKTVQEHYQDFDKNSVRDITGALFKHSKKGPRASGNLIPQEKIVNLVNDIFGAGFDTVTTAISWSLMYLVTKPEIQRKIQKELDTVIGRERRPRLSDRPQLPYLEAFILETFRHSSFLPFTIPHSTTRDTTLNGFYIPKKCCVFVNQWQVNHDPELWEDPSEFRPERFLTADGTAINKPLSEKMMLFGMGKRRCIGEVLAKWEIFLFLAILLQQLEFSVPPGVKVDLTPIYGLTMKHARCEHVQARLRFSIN
Method: as §2

[5] = tested on: recombinant human CYP isoenzymes; assay: Fluorescence response of ERNM toward various recombinant human CYPs; format: biochemical; details: CYPs 15 nM, ERNM 10 μM, 30 min, 37 °C, fluorescence 558 nm
Method: The incubation sample consisted of NADPH-generating system (including NADP^+, magnesium chloride, glucose-6-phosphate, and glucose-6-phosphate dehydrogenase), and human liver microsomes or recombinant human CYP enzyme in potassium phosphate buffer (100 mM, pH 7.4). The total volume of the incubation mixture is 200 μL. Fluorescent substrate was dissolved in DMSO, and was pre-diluted to the working concentrations. If necessary, blank samples without NADPH or without enzymes will be set up as negative controls. The incubation reaction was initiated by adding NADP^+ after pre-incubation at 37 °C for 3 min. […]
To reveal the enzyme specificity for ERNM, the human recombinant CYP enzymes including CYP1A1, CYP1A2, CYP1B1, CYP2A6, CYP2A13, CYP2B6, CYP2C8, CYP2C9, CYP2C18, CYP2C19, CYP2D6, CYP2E1, CYP2J2, CYP3A4, CYP3A5, CYP4A11, CYP4F2, CYP4F3, and CYP4F12 (15 nM) were incubated with ERNM (the in-system concentration of ERNM in the incubation system is 10 μM) in 200 μL of the incubation mixture in the presence of NADPH-generating systems. After incubation for 30 min at 37 °C, the dealkylated metabolite was measured by quantifying the intensity of fluorescence signal at 558 nm that was excited at 450 nm. Data were analyzed using GraphPad Prism 8.0 (GraphPad Software, Inc., San Diego, CA, USA).

[6] = tested on: A549 cells; assay: Colocalization of ERNM with ER-Tracker in living cells; format: cell-based; details: co-incubated with ER-Tracker Red, two-photon excitation
Method: The systematic evaluation of ERNM confirmed its application in complex biosystems, subsequent work is related to the investigation of the subcellular localization of ERNM in living cells. Briefly, ERNM was co-incubated with a commercial ER-Tracker (red) in A549 cells, and then imaged under two-photon (ERNM) and single-photon (ER-Tracker) excitation conditions using confocal fluorescence microscope.
as §1

[7] = substrate: COc1ccc2c3c(cccc13)C(=O)N(CCNS(=O)(=O)c1ccc(C)cc1)C2=O; assay: ERNM O-demethylation enzyme kinetics in recombinant CYP1A1; format: biochemical, human; details: other: CYP1A1 5 nM, ERNM 1-200 μM, 30 min, fluorescence 558 nm; pH 7.4; 37.0 °C
Method: as §2

[8] = substrate: COc1ccc2c3c(cccc13)C(=O)N(CCNS(=O)(=O)c1ccc(C)cc1)C2=O; assay: ERNM O-demethylation enzyme kinetics in recombinant CYP1A2; format: biochemical, human; details: other: CYP1A2 5 nM, ERNM 1-200 μM, 30 min, fluorescence 558 nm; pH 7.4; 37.0 °C
Method: as §2

[9] = substrate inhibition constant, Table S1

Molecule: O[C@@H](CS)[C@@H](O)CS (racemic) [DTT, dithiothreitol]
Time at which CYP1A activity reached the peak [2]: 2 h

B1: CYP1A1 (Homo sapiens) (protein)
chain: T1 sequence (P04798 1-512)
notes: purchased BD Biosciences (Woburn, MA, USA)
Km [7]: 1.0 ± 0.1 µM
kcat [7]: 1.92 ± 0.04 nmol/min/nmol P450

B2: CYP1A2 (Homo sapiens) (protein)
chain: T2 sequence (P05177 1-516)
notes: as for B1
Km [8]: 2.9 ± 0.5 µM
kcat [8]: 3.32 ± 0.15 nmol/min/nmol P450

Continued, in another order:

Effect on generation of the ERNM fluorescence signal in human liver microsomes [1]: sufficiently suppressed
Molecule: O=c1cc(-c2ccccc2)oc2c1ccc1ccccc12 [α-naphthoflavone]

Vmax for demethylation catalyzed by CYP1A1 ([3]; CYP1A1 5 nM, ERNM 1-200 μM, 30 min): 1.92 ± 0.04 nmol/min/nmol P450
Kinetic behavior of CYP1A1 mediated demethylation ([3]; kinetic plot, Figure S5): kinetics of substrate inhibition
Ksi of ERNM O-demethylation in CYP1A1 [3, 9]: 611.3 ± 93.8 µM
Vmax for demethylation catalyzed by CYP1A2 ([4]; CYP1A2 5 nM, ERNM 1-200 μM, 30 min): 3.32 ± 0.15 nmol/min/nmol P450
Kinetic behavior of CYP1A2 mediated demethylation ([4]; kinetic plot, Figure S5): kinetics of substrate inhibition
Ksi of ERNM O-demethylation in CYP1A2 [4, 9]: 281.2 ± 50.2 µM
Molecule: COc1ccc2c3c(cccc13)C(=O)N(CCNS(=O)(=O)c1ccc(C)cc1)C2=O [ERNM]
Selectivity of fluorescence response among CYP isoenzymes [5]: CYP1A1/1A2 mediated the generation of fluorescence signals at 558 nm over other CYP isoenzymes
Subcellular localization (overlap with ER-Tracker) [6]: exclusively target the ER
